{"source": "patent US10000512B2", "about": "“Compounds for the treatment of infectious diseases” (Hoffmann-La Roche Inc., priority 2014, dated 2018)", "key": {"[1]": {"target": "T1, human TLR7 (Homo sapiens, UniProt Q9NYK1)", "T1 sequence (Q9NYK1 27-1049)": "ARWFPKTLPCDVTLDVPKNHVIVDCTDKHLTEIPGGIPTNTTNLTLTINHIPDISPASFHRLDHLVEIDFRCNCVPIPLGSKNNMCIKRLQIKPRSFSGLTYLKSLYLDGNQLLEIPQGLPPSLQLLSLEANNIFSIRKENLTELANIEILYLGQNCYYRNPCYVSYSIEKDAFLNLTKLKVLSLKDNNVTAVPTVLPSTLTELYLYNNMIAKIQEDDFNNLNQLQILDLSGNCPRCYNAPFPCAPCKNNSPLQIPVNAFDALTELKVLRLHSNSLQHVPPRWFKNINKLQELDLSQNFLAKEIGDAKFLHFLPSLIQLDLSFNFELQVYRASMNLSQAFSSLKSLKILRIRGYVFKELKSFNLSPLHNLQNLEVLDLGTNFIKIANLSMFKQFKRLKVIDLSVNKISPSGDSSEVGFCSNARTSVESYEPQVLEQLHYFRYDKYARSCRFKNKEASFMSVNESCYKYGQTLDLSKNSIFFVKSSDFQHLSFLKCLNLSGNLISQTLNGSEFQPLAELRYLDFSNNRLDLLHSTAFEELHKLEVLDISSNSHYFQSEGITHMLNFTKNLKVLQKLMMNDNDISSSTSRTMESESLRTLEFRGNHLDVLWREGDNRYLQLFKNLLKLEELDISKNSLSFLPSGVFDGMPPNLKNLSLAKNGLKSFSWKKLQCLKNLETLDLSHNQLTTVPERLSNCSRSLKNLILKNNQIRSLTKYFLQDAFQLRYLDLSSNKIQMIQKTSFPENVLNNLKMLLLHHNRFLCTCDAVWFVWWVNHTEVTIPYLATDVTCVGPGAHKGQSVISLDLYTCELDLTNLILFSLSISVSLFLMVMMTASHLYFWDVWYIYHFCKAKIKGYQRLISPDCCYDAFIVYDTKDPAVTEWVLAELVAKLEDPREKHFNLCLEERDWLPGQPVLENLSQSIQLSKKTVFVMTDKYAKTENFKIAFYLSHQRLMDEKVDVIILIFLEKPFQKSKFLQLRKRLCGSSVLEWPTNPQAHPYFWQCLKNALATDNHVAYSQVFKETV", "experiment": "HEK293-Blue-hTLR-7 cells assay (SEAP reporter)", "assay_type": "cell-based", "conditions": "20 hours incubation", "description": "A stable HEK293-Blue-hTLR-7 cell line was purchased from InvivoGen (Cat.#: hkb-ht1r7, San Diego, Calif., USA). These cells were designed for studying the stimulation of human TLR7 by monitoring the activation of NF-κB. A SEAP (secreted embryonic alkaline phosphatase) reporter gene was placed under the control of the IFN-β minimal promoter fused to five NF-κB and AP-1-binding sites. The SEAP was induced by activating NF-κB and AP-1 via stimulating HEK-Blue hTLR7 cells with TLR7 ligands. Therefore the reporter expression was regulated by the NF-κB promoter upon stimulation of human TLR7 for 20 hours. The cell culture supernatant SEAP reporter activity was determined using QUANTI-Blue™ kit (Cat.#: rep-qb1, Invivogen, San Diego, Calif., USA) at a wavelength of 640 nm, a detection medium that turns purple/blue in the presence of alkaline phosphatase.\nHEK293-Blue-hTLR7 cells were incubated at a density of 250,000˜450,000 cells/mL in a volume of 180 μL in a 96-well plate in Dulbecco's Modified Eagle's medium (DMEM) containing 4.5 g/L glucose, 50 U/mL penicillin, […] streptomycin, […] Normocin, 2 mM L-glutamine, 10% (v/v) heat-inactivated fetal bovine serum for 24 h. Then the HEK293-Blue-hTLR-7 cells were incubated with addition of 20 μL test compound in a serial dilution in the presence of final DMSO at 1% and perform incubation under 37° C. in a CO2 incubator for 20 hours. Then 20 μL of the supernatant from each well was incubated with 180 μL Quanti-blue substrate solution at 37° C. for 2 h and the absorbance was read at 620˜655 nm using a spectrophotometer. The signalling pathway that TLR7 activation leads to downstream NF-κB activation has been widely accepted, and therefore similar reporter assay was also widely used for evaluating TLR7 agonist (Tsuneyasu Kaisho and Takashi Tanaka, Trends in Immunology, Volume 29, Issue 7, July 2008, […]; Hiroaki Hemmi et al, Nature Immunology 3, 196-200 (2002)."}, "[2]": {"target": "T2, murine TLR7 (Mus musculus, UniProt P58681)", "T2 sequence (P58681 27-1050)": "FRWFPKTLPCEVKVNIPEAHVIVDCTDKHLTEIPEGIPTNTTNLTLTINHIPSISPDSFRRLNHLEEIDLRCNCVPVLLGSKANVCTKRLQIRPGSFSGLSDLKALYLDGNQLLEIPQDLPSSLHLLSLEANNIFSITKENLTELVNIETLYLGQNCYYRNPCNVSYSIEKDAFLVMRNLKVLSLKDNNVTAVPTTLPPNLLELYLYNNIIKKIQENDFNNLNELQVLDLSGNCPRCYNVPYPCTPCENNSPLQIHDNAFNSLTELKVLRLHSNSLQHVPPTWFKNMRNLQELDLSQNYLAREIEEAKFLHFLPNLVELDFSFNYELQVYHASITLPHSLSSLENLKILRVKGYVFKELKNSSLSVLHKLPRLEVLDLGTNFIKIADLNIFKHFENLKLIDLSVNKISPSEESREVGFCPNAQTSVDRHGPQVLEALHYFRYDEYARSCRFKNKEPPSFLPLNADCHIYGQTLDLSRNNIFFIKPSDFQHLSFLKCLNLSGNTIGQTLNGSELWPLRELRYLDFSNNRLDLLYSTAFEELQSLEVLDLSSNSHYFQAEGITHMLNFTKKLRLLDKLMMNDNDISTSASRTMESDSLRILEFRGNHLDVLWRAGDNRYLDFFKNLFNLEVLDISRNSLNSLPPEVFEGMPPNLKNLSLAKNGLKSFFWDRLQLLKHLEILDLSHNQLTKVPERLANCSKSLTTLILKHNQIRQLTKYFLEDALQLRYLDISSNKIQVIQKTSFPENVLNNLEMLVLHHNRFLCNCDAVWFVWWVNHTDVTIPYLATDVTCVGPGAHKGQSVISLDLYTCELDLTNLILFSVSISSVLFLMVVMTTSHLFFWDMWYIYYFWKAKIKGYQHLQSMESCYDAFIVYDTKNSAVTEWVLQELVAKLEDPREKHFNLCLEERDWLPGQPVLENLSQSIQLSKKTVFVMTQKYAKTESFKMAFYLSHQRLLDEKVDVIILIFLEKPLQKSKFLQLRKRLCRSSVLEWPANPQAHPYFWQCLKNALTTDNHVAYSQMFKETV", "experiment": "HEK293-Blue-mTLR7 assay (SEAP reporter)", "assay_type": "cell-based", "conditions": "HEK293-Blue-mTLR7 cells, 20 hours, Quanti-Blue; read-out: EC50 murine TLR7 activation", "procedure": "The potency of the TLR7 agonist Example 4-A was assessed in murine TLR7 activation using a stable HEK293-Blue-mTLR7 cell line purchased from InvivoGen (Cat.#: hkb-mt1r7, San Diego, Calif., USA). Similar to the HEK293-Blue-hTLR7 as described in Example 26, the HEK293-Blue-mTLR7 was designed for studying the stimulation of murine TLR7 by monitoring the activation of NF-κB. A SEAP reporter gene was placed under the control of the IFN-β minimal promoter fused to five NF-κB and AP-1-binding sites. SEAP expression was induced by the activation of NF-κB and AP-1 upon stimulation of murine TLR7 with TLR7 ligands. SEAP expression in cell culture supernatant was determined using QUANTI-Blue™ kit (Cat.#: rep-qb1, Invivogen, San Diego, Ca, USA) at a wavelength of 640 nm, a detection medium that turns purple/blue in the presence of alkaline phosphatase.\nHEK293-Blue-mTLR7 cells were incubated at a density of 250,000˜450,000 cells/mL in a volume of 180 μL in a 96-well plate in Dulbecco's Modified Eagle's medium (DMEM) containing 4.5 g/L glucose, 50 U/mL penicillin, […], […], 2 mM L-glutamine, 10% (v/v) heat-inactivated fetal bovine serum for 24 h. […] Then 20 μL of the supernatant from each well was incubated with 180 μl Quanti-blue substrate solution at 37° C. for 2 hours and the absorbance was read at 640 nm using a spectrophotometer."}}}
{"compound": "Nc1nc2c(sc(=O)n2[C@H]2CS[C@@H](C(O)C3CC3)O2)c(=O)[nH]1", "note": "(single isomer, unassigned) [Example 4-A]", "values": [{"measurement": "EC50", "setting": "[1]", "result": 7.9, "unit": "µM"}, {"measurement": "EC50", "setting": "[2]", "result": 7.8, "unit": "µM"}]}
